Converted amounts (≈) assume the structure as drawn. Where two headings read alike, the source gives them in different places.
Legend:
[1] = type: physicochemical; details: arsenazo III 4.5 mM, buffer pH 7.3, 50-54 mg salt in 1 ml, MLVs washed three times
Method: The 2-amino-2-methyl-1,3-propanediol salt of cholesterol hemisuccinate (50 mg) was added to a 1 ml solution of arsenazo III (4.5 mM, final concentration) in 0.01 M 2-amino-2-methyl-1,3-propanediol-HCl (pH 7.3), 0.07 M KCl, 0.07 M NaCl. The suspension of CHS-MLVs was formed by mixing vortically with glass beads. The CHS-MLVs were pelleted by centrifugation at 10,000×g for 15 minutes, and the resulting pellet was washed three times as described in Section 6.1.1.
The 2-aminoethanol salt of cholesterol hemisuccinate (50 mg) was added to a 1 ml solution of arsenazo III (4.5 mM, final concentration) in 0.01 M 2-aminoethanol-HCl (pH 7.3), 0.07 M KCl, 0.07 M NaCl. The suspension of CHS-MLVs was formed by mixing vertically with glass beads. The CHS-MLVs were pelleted by centrifugation at 10,000×g for 15 minutes, and the resulting pellet was washed three times as described in Section 6.1.1.
The suspension of CHS-MLVs was formed by mixing vertically with glass beads. The CHS-MLVs were pelleted by centrifugation at 10,000×g for 15 minutes, and the resulting pellet was washed three times as described in Section 6.1.1.
The triethanolamine salt of cholesterol hemisuccinate (50 mg) was added to a 1 ml solution of arsenazo III (4.5 mM, final concentration) in 0.01 M triethanolamine-HCL (pH 7.3), 0.07 M KCl, 0.07 M NaCl. The suspension of CHS-MLVs was formed by mixing vortically with glass beads. The CHS-MLVs were pelleted by centrifugation at 10,000×g for 15 minutes, and the resulting pellet was washed three times as described in Section 6.1.1.

[2] = cited from earlier work
[3] = Entrapment of 3H-diazepam in sonicated CHS-SUVs; details: Diazepam 5 mg/ml
[4] = type: physicochemical
Method: CHS-MLVs were prepared as described in Section 6.2 using 25 mg tris-salt CHS in 1.0 ml 0.01 M Tris-HCl (pH 7.4), 0.14 M NaCl buffer. The CHS-MLV preparation was sonicated to clarify to form sonicated CHS-SUVs and then either 5, 10, 15, 25, 30 or 166 mg BGH (Eli Lilly & Co., Indianapolis, Ind.) was added to separate aliquots of the sonicated CHS-SUV suspension. The suspensions were extensively mixed vortically, resulting in partitioning of the protein into the CHS-SUV bilayers. The sonicated CHS-SUV suspensions were visually observed for the presence of precipitate at 1, 2, and 21 days.
CHS-MLVs were prepared as described in Section 6.2 using 25 mg tris-salt CHS in 1.0 ml 0.01 M Tris-HCl (pH 7.4), 0.14 M Nacl buffer. The CHS-MLV preparation was sonicated to clarity to form sonicated CHS-SUVs and up to 47 mg zinc-insulin powder (Boving Pancreatic Insulin, Sigma Chemical Co., St. Louis, Mo.) was added to the CHS-SUV suspension. The suspension was extensively mixed vortically, resulting in partitioning of the insulin into the CHS-SUV bilayers. The sonicatd CHS-SUVs were visually observed for the presence of precipitate at 1, 2, and 21 days. […] Insulin entrapment occurs more rapidly at 37° C.
Small unilamellar vesicles were prepared as follows: 100 mg tylosin-base (Eli Lilly & Co., Indianapolis, Ind.) and 200 mg tris-salt CHS were mixed vertically in 4 ml phosphate buffered saline (pH 7.4). […]

[5] = Retention of 125I-human growth hormone in the hind limb after intramuscular injection; design: species or system Swiss-Webster mice; details: mouse, in vivo
Method: A group of 12 female Swiss-Webster mice were injected intramuscularly in the hind limb with 0.5 ml of the CHS-MLV entrapped ^125I-HGH suspension. A control group of 12 mice were injected with 0.5 ml free ^125I-HGH in .01 M Tris-HCl, 0.14 M NaCl buffer. Each animal in both groups received approximately 35,000 cpm/animal. At periodic intervals post-injection, the mice were sacrificed, the hind limb dissected, and percent total radioactivity remaining was determined. […] Thus, when injected intramuscularly, the CHS-liposome entrapped drug is released in a sustained fashion.

Molecule: CC(C)CCC[C@@H](C)[C@H]1CC[C@H]2[C@@H]3CC=C4C[C@@H](OC(=O)CCC(=O)O)CC[C@]4(C)[C@H]3CC[C@]12C.CC(N)(CO)CO [2-amino-2-methyl-1,3-propanediol salt of cholesterol hemisuccinate]
- entrapment of arsenazo III (colour of washed pellet) [1]: red in color indicating entrapment of the arsenazo III

Molecule: CC(C)CCC[C@@H](C)[C@H]1CC[C@H]2[C@@H]3CC=C4C[C@@H](OC(=O)CCC(=O)O)CC[C@]4(C)[C@H]3CC[C@]12C.NCCO [2-aminoethanol salt of cholesterol hemisuccinate]
- entrapment of arsenazo III (colour of washed pellet) [1]: red in color indicating entrapment of the arsenazo III

Molecule: COc1ccc2c(c1)c(CC(=O)O)c(C)n2C(=O)c1ccc(Cl)cc1 [Indomethacin]
- solubility in water [2]: practically insoluble in water

Molecule: CC(C)CCC[C@@H](C)[C@H]1CC[C@H]2[C@@H]3CC=C4C[C@@H](OC(=O)CCC(=O)O)CC[C@]4(C)[C@H]3CC[C@]12C.NC(CO)(CO)CO [Tris-salt CHS, tris(hydroxymethyl)aminomethane salt of cholesteryl hemisuccinate]
- entrapment of arsenazo III (colour of washed pellet) [1]: red in color indicating entrapment of the arsenazo III
- % 3H-Diazepam Entrapped ([3]; CHS 100 mg/ml): 100%
- % 3H-Diazepam Entrapped ([3]; CHS 200 mg/ml): 100%

Molecule: CC[C@H]1OC(=O)C[C@@H](O)[C@H](C)[C@@H](O[C@@H]2O[C@H](C)[C@@H](O[C@H]3C[C@@](C)(O)[C@@H](O)[C@H](C)O3)[C@H](N(C)C)[C@H]2O)[C@@H](CC=O)C[C@@H](C)C(=O)/C=C/C(C)=C/[C@@H]1CO[C@@H]1O[C@H](C)[C@@H](O)[C@@H](OC)[C@H]1OC [Tylosin, reference compound]
- precipitate formation (visual comparison) ([4]; 100 mg tylosin base in 4 ml: CHS-SUV supernatant versus suspension in water): A precipitate formed
- solubility in water ([2]; 25° C.): 5000 µg/mL (≈ 5.46 mM)

Molecule: CC(C)CCCC(C)C1CCC2C3CC=C4CC(OC(=O)CCC(=O)O)CCC4(C)C3CCC12C.OCCN(CCO)CCO (stereo not drawn) [triethanolamine salt of cholesterol hemisuccinate]
- entrapment of arsenazo III (colour of washed pellet) [1]: red in color indicating entrapment of the arsenazo III

Molecule: Zinc-insulin: a polypeptide hormone; zinc-insulin powder, bovine pancreatic insulin from Sigma
- solubility in aqueous phases ([2]; pH 4.5): practically insoluble

Molecule: ^125I-HGH: free 125I-labelled human growth hormone in 0.01M Tris-HCl, 0.14M NaCl
- % Radioactivity Remaining in Limb ([5]; 3 h): 5%
- % Radioactivity Remaining in Limb ([5]; 24 h): 0.7%
- % Radioactivity Remaining in Limb ([5]; 72 h): 0.2%
- % Radioactivity Remaining in Limb ([5]; 168 h): 0.3%

B1: BGH: a simple protein composed of a single chain of approximately 191 amino acids (protein, UniProt P01246 27-217, looked up)
Somatotropin: AFPAMSLSGLFANAVLRAQHLHQLAADTFKEFERTYIPEGQRYSIQNTQVAFCFSETIPAPTGKNEAQQKSDLELLRISLLLIQSWLGPLQFLSRVFTNSLVFGTSDRVYEKLKDLEEGILALMRELEDGTPRAGQILKQTYDKFDTNMRSDDALLKNYGLLSCFRKDLHKTETYLRVMKCRRFGEASCAF
- presence of precipitate at 1, 2, and 21 days ([4]; 5-166 mg BGH added to sonicated CHS-SUVs (25 mg tris-salt CHS in 1.0 ml), room temperature): No precipitate was observed
